Calls of active or inactive are those of the source. The calls are words filed in the database; no cut-off is given here.
Experiments:
[1] = molecular target: T1, Neuronal acetylcholine receptor; alpha3/beta4 (Homo sapiens, UniProt P30926+P32297); assay: Agonist activity at human alpha3beta4 nAChR expressed in CHO cells assessed as calcium influx by calcium-4 based FLIPR analysis; type: cell-based
[2] = molecular target: T1, Neuronal acetylcholine receptor; alpha3/beta4; assay: Reversible inhibition of human alpha3beta4 nAChR expressed in CHO cells assessed as inhibition of acetylcholine-induced response at 1 uM measured after compound washout by electrophysiological method; type: cell-based
[3] = molecular target: T1, Neuronal acetylcholine receptor; alpha3/beta4; assay: Displacement of [3H]epibatidine from human alpha3beta4 nAChR expressed in CHO cells after 2 hrs by liquid scintillation counting; type: cell-based
[4] = molecular target: T1, Neuronal acetylcholine receptor; alpha3/beta4; assay: Inhibition of human alpha3beta4 nAChR expressed in CHO cells assessed as inhibition of calcium influx by calcium-4 based FLIPR analysis; type: cell-based
[5] = molecular target: T1, Neuronal acetylcholine receptor; alpha3/beta4; assay: Agonist activity at human alpha3beta4 nAChR expressed in CHO cells at 1 uM by electrophysiological analysis relative to acetylcholine; type: cell-based
[6] = molecular target: T1, Neuronal acetylcholine receptor; alpha3/beta4; assay: Agonist activity at human alpha3beta4 nAChR expressed in CHO cells at 0.1 uM by electrophysiological analysis relative to acetylcholine; type: cell-based
[7] = molecular target: T1, Neuronal acetylcholine receptor; alpha3/beta4; assay: Non-competitive antagonist activity at human alpha3beta4 nAChR expressed in CHO cells assessed as inhibition of nicotine-induced calcium influx incubated for 30 mins prior to nicotine-induction by calcium-4 based FLIPR analysis; type: cell-based
[8] = molecular target: T1, Neuronal acetylcholine receptor; alpha3/beta4; assay: Agonist activity at human alpha3beta4 nAChR expressed in CHO cells assessed as calcium influx by calcium-4 based FLIPR analysis relative to nicotine; type: cell-based
[9] = molecular target: T2, Muscarinic acetylcholine receptor M2 (Rattus norvegicus, UniProt P10980); assay: Antagonist activity at rat muscarinic M2 receptor isolated from brain
T2 sequence (P10980 whole entry): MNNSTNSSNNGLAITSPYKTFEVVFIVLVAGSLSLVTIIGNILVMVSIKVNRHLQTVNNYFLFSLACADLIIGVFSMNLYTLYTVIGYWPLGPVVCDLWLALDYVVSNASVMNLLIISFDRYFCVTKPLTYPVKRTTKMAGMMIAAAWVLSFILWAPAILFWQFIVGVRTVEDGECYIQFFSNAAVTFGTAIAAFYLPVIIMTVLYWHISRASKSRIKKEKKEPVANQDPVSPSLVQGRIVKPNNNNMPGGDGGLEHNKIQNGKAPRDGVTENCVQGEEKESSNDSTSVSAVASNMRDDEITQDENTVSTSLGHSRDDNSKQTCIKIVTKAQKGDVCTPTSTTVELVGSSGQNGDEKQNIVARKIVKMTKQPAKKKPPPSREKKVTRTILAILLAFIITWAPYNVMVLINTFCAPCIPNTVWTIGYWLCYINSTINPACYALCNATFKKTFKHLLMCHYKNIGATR

[10] = molecular target: T3, Muscarinic acetylcholine receptor M1 (Rattus norvegicus, UniProt P08482); assay: Antagonist activity at rat muscarinic M1 receptor isolated from brain
T3 sequence (P08482 whole entry): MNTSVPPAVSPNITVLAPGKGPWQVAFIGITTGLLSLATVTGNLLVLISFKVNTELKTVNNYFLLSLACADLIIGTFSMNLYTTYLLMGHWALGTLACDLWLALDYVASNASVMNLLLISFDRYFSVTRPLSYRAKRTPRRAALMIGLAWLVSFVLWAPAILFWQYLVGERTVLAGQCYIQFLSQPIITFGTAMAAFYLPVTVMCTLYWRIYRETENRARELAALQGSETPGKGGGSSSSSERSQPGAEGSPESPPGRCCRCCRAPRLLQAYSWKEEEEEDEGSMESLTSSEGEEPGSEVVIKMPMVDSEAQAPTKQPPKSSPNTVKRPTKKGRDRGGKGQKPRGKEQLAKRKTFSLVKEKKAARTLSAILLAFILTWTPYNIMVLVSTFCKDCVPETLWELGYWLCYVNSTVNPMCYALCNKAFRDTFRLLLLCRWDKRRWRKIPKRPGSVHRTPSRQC

[11] = molecular target: T1, Neuronal acetylcholine receptor; alpha3/beta4; assay: Agonist activity at human alpha3beta4 nAChR expressed in CHO cells at 10 uM by electrophysiological analysis relative to acetylcholine; type: cell-based

T1 sequence (P30926 whole entry): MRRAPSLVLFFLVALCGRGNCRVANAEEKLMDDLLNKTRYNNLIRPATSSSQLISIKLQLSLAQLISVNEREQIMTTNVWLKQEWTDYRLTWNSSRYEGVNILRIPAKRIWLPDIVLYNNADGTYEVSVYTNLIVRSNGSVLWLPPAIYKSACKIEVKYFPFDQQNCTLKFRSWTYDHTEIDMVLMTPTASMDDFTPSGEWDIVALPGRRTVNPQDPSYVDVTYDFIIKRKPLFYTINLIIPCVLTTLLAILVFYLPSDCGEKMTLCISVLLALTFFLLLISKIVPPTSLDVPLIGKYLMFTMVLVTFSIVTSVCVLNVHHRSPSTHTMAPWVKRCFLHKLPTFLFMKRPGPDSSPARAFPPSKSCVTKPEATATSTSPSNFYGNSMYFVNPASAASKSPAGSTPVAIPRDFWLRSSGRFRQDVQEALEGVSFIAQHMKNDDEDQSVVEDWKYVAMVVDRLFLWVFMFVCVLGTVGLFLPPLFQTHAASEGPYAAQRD
T1 sequence (P32297 whole entry): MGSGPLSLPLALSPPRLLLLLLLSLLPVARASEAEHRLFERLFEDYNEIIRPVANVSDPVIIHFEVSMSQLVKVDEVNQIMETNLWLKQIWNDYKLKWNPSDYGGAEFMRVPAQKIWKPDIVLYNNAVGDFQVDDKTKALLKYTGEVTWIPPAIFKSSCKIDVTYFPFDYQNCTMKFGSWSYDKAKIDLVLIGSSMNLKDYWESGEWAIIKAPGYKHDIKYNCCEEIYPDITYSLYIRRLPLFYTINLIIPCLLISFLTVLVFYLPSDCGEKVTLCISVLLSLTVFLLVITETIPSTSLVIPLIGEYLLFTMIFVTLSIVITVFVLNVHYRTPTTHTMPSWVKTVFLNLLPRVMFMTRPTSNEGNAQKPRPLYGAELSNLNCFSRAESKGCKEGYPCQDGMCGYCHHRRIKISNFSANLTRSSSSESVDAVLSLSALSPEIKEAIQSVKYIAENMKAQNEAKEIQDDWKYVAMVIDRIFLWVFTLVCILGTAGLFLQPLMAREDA

Compound | EC50 [1] [nM] | inhibition [2] | Ki [3] [nM] | IC50 [4] [nM] | Activity [5] [%] | Activity [6] [%] | IC50 [7] [nM] | Emax [8] [%] | IC50 [9] [nM] | IC50 [10] [nM] | Activity [11] [%]
C(CN1CCCCC1)=C(c1ccccc1)c1ccccc1 | > 10000 | inactive | 2200 | 100 | 0.7 | 0.5 | 380 | 31 | 372 | 75.9 | 0.6
N#CC(c1ccccc1)C1CN2CCC1CC2 (stereo not given) |  |  | 2100 | 23000 | 2 | 1 |  | < 10 |  |  | 6
c1ccc(C(c2ccccc2)C2CN3CCC2CC3)cc1 (stereo not given) | > 10000 | Active | 1500 | 200 | 2 | 0.5 | 400 | 14 |  |  | 7
C(=C1/CN2CCC1CC2)/c1cccnc1 | 2000 |  | 1600 | 10000 | 22 | 5 |  | 31 |  |  | 56
c1ccc(C(c2ccccc2)[N+]23CCN(CC2)CC3)cc1 |  |  | 8500 | 15000 | 0.7 | 1 |  | < 10 |  |  | 0.5
C(=C1/CN2CCC1CC2)/c1ccccc1 | 3000 |  | 2100 | 6000 | 2 | 1 |  | 25 |  |  | 7
c1ccc(C[N+]23CCC(CC2)C(C(c2ccccc2)c2ccccc2)C3)cc1 (stereo not given) | 9000 | inactive | 2300 | 80 | 1 | 0.5 | 600 | 10 |  |  | 0.4
